Measurements published in ChEMBL document CHEMBL3600332, “Novel dammarane-type triterpenes isolated from hydrolyzate of total Gynostemma pentaphyllum saponins” (Bioorg Med Chem Lett, 2015).
Calls of active or inactive are those of the source. No cut-off for these calls is given here.

Key:
[1] = Cytotoxicity against human BGC823 cells after 48 hrs by MTT assay; type: functional, cell-based; conditions: BGC-823, 48 h
HCT-116 = assay: Cytotoxicity against human HCT116 cells after 48 hrs by MTT assay; type: functional, cell-based; conditions: HCT-116, 48 h
HT-29 = assay: Cytotoxicity against human HT-29 cells after 48 hrs by MTT assay; type: functional, cell-based; conditions: HT-29, 48 h
MCF7 [2] = assay: Cytotoxicity against human MCF7 cells after 48 hrs by MTT assay; type: functional, cell-based; conditions: for IC50: MCF7, 48 h
[3] = Cytotoxicity against human MCF10A cells after 48 hrs by MTT assay; type: cell-based; conditions: MCF-10A
MCF7 [4] = assay: Cytotoxicity against human MCF7 cells at 1 uM by MTT assay; type: functional, cell-based; conditions: TDE = time-dependent effect
MCF7 [5] = assay: Induction of apoptosis in human MCF7 cells assessed as bubble-shaped regions at 20 uM after 36 hrs by phase-contrast microscopic analysis; type: functional, cell-based
MCF7 [6] = assay: Induction of apoptosis in human MCF7 cells assessed as condensed chromatin in nucleus at 20 uM after 36 hrs by DAPI staining; type: functional, cell-based
MCF7 [7] = assay: Cell cycle arrest in human MCF7 cells assessed as accumulation at subG1 phase at 20 uM after 12 to 36 hrs using propidium-iodide staining by flow-cytometry (reference value: 0.41%); type: functional
MCF7 [8] = assay: Cell cycle arrest in human MCF7 cells assessed as accumulation at M1 phase at 20 uM after 12 to 36 hrs using propidium-iodide staining by flow-cytometry (reference value: 0.95%); type: functional

| Compound | IC50 [1] [µM] | IC50 (HCT-116) [µM] | IC50 (HT-29) [µM] | Activity (MCF7 [2]) | IC50 (MCF7 [2]) [µM] | IC50 [3] [µM] | Activity (MCF7 [4]) | Activity (MCF7 [5]) | Activity (MCF7 [6]) | Activity (MCF7 [7]) [%] | Activity (MCF7 [8]) [%] |
| --- | --- | --- | --- | --- | --- | --- | --- | --- | --- | --- | --- |
| COC(C)(C)CCC[C@@](O)(CO[C@@H]1O[C@H](CO)[C@@H](O)[C@H](O)[C@H]1O)[C@H]1CC[C@]2(C)[C@@H]1CC[C@@H]1C3=C(CC[C@]12C)C(C)(C)[C@@H]1CC[C@H]3O1 | > 100 | 55.7 | 28.1 | Dose-dependent effect | 6.85 | > 100 | tde | Active | Active | 17.09 | 74.59 |
| CC(C)(O)CC/C=C(/CO[C@@H]1O[C@H](CO)[C@@H](O)[C@H](O)[C@H]1O)[C@H]1CC[C@]2(C)[C@@H]1CC[C@@H]1C3=C(CC[C@]12C)C(C)(C)[C@@H]1CC[C@H]3O1 | > 100 | > 100 | 26.1 | – | 14.3 | > 100 | – | – | – | – | – |
| CC(C)(O)CC/C=C(/CO[C@@H]1O[C@H](CO)[C@@H](O)[C@H](O)[C@H]1O)[C@@H]1CC[C@]2(C)[C@@H]1CC[C@@H]1[C@@]3(C)CC[C@H](O)C(C)(C)[C@@H]3CC[C@]12C | > 100 | 66.5 | 30.5 | – | 46.3 | > 100 | – | – | – | – | – |
| CC(C)(O)CCC[C@@H](CO[C@@H]1O[C@H](CO)[C@@H](O)[C@H](O)[C@H]1O)[C@H]1CC[C@]2(C)[C@@H]1CC[C@@H]1C3=C(CC[C@]12C)C(C)(C)[C@@H]1CC[C@H]3O1 | > 100 | > 100 | 32 | – | 21.2 | > 100 | – | – | – | – | – |
| CC(C)(O)CC/C=C(/CO[C@@H]1O[C@H](CO)[C@@H](O)[C@H](O)[C@H]1O)[C@H]1CC[C@]2(C)[C@@H]1CC[C@@H]1[C@@]3(C)CC[C@H](O)C(C)(C)[C@@H]3CC[C@]12C | > 100 | 67.3 | 33.6 | – | 52.4 | > 100 | – | – | – | – | – |
